The results in this text go back to patent US20250163054A1, “SUBSTITUTED BICYCLIC HETEROARYL COMPOUNDS USEFUL AS INHIBITORS OF TLR9” (Bristol-Myers Squibb Company, priority 2022, published 2025).

SMILES strings stand for the structures. pIC50: −log10 of the molar value.

What all share (type): cell-based
The target of one assay is T1, human TLR9 (Homo sapiens, UniProt Q9NR96).
T1 construct: host or cells: HEK-Blue cells (HEK293-derived reporter line)
T1 sequence (Q9NR96 26-1032): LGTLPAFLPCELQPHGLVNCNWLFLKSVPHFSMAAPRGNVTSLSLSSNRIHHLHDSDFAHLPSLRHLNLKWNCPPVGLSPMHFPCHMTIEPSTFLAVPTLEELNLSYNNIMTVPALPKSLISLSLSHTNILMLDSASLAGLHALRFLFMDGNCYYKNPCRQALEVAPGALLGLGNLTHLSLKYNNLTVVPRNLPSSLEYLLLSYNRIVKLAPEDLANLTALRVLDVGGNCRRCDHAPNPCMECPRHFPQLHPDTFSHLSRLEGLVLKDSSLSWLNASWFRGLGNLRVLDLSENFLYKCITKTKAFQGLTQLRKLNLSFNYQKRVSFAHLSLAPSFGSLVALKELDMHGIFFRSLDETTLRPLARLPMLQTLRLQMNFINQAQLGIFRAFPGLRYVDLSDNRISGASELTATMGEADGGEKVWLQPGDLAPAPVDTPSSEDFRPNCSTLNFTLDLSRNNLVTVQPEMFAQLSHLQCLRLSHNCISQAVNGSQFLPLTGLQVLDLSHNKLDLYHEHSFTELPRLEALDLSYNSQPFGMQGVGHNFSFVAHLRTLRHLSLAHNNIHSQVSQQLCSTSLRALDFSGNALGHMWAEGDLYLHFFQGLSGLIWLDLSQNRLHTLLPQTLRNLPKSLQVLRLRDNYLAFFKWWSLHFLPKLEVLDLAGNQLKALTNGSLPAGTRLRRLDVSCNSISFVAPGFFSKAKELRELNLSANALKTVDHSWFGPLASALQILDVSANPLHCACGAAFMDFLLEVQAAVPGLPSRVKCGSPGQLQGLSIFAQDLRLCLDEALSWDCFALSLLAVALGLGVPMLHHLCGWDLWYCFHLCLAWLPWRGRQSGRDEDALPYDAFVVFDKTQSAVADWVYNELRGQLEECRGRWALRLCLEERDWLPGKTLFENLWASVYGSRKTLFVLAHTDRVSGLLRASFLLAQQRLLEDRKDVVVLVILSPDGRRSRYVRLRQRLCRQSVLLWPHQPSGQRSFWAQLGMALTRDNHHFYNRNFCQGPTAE
The assay can be described thus: TLR7/8/9 Inhibition Reporter Assays (TLR9). The conditions noted are these: HEK-Blue cells overexpressing human TLR9, SEAP reporter, stimulated with TLR9 ligand ODN2006. The protocol:
(§1) HEK-Blue™-cells (Invivogen) overexpressing human TLR7, TLR8 or TLR9 receptors were used for screening inhibitors of these receptors using an inducible SEAP (secreted embryonic alkaline phosphatase) reporter gene under the control of the IFN-β minimal promoter fused to five NF-κB and AP-1-binding sites. Cells are seeded into Greiner 384 well plates (15000 cells per well) that are predispensed (by ECHO) with testing compounds in DMSO to yield a final dose response concentration range of 0.85 nM-[…]. After a 60 minute compound pre-treatment in 37° C. incubator, the cells are then stimulated with a TLR7 ligand (gardiquimod at a final concentration of […]), TLR8 ligand (R848 at a final concentration of […]) or TLR9 ligand (ODN2006 at a final concentration of 200 nM) to activate NF-κB and AP-1 which induce the production of SEAP. After a 22 hour incubation at 37° C., 5% CO2, SEAP levels are determined with the addition of HEK-Blue™ Detection reagent (Invivogen), a cell culture medium that allows for detection of SEAP, according to manufacturer's specifications. The percent inhibition is determined as the % reduction in the HEK-Blue signal present in wells treated with agonist plus DMSO alone compared to wells treated with a known inhibitor.
On the technique in general: Reporter assays use an easily measured gene product as a stand-in for the process of interest.

Another assay deals with T2, human TLR7 (Homo sapiens, UniProt Q9NYK1).
T2 construct: host or cells: HEK-Blue cells (HEK293-derived reporter line)
T2 sequence (Q9NYK1 27-1049): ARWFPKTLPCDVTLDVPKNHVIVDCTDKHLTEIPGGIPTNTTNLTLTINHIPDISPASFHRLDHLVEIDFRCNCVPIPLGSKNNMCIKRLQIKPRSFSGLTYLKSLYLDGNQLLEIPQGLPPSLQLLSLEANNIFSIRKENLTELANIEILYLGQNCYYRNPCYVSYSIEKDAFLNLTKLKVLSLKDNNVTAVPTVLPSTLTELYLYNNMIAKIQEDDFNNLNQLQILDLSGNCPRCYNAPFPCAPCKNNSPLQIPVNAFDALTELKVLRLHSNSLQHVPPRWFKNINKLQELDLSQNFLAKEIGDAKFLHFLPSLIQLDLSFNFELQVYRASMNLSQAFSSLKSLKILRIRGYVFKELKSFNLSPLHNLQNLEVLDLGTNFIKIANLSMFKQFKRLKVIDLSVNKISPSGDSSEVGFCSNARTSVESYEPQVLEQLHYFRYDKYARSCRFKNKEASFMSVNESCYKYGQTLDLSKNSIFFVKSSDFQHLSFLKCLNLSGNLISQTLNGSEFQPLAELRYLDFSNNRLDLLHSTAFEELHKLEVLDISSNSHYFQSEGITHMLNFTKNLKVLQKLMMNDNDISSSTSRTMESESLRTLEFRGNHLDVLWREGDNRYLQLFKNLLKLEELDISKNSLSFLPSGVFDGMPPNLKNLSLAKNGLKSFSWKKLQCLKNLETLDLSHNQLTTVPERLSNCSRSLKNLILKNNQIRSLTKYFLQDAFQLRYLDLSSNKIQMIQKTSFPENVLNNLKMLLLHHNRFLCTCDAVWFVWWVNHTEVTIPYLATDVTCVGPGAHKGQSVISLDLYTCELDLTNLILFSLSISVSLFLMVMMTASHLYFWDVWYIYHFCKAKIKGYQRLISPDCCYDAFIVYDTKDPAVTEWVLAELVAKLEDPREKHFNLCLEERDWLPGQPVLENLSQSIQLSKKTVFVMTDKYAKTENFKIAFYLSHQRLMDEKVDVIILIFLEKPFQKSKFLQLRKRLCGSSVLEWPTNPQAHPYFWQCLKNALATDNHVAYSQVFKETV
In words: TLR7/8/9 Inhibition Reporter Assays (TLR7). As to conditions: HEK-Blue cells overexpressing human TLR7, SEAP reporter, stimulated with TLR7 ligand gardiquimod. The protocol: as §1

The target in the next assay is T3, human TLR8 (Homo sapiens, UniProt Q9NR97).
T3 construct: host or cells: HEK-Blue cells (HEK293-derived reporter line)
T3 sequence (Q9NR97 27-1041): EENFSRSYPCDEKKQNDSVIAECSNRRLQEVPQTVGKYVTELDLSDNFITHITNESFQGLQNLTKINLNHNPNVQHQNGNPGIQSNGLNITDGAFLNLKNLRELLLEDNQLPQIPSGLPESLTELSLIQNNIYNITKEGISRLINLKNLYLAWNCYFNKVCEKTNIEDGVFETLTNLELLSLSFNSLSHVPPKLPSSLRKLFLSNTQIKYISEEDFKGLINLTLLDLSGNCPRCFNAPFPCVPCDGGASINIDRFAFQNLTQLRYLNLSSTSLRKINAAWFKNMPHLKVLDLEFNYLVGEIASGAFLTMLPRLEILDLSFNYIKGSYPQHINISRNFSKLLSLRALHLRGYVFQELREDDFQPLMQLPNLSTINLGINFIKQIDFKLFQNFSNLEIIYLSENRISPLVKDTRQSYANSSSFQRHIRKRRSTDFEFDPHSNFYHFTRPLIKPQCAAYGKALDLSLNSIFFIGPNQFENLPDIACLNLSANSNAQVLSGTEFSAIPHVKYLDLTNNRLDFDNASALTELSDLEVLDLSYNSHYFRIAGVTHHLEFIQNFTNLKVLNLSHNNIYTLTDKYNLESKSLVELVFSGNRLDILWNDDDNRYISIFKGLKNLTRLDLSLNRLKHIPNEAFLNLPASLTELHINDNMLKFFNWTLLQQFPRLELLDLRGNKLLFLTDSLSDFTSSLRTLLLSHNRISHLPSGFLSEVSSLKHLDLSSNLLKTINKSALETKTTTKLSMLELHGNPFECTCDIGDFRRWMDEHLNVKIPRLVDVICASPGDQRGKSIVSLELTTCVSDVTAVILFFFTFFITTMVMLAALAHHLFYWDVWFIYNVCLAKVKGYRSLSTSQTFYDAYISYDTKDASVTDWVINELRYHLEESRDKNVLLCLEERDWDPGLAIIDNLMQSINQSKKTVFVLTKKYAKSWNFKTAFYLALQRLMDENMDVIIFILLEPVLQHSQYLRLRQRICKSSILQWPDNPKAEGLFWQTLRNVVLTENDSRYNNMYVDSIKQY
The assay can be described thus: TLR7/8/9 Inhibition Reporter Assays (TLR8). As to conditions: HEK-Blue cells overexpressing human TLR8, SEAP reporter, stimulated with TLR8 ligand R848. The method, then:
as §1

Consider `Cc1nc(-c2ccc(N3CCC4(CC3)CN(CC(C)(C)O)C4)cc2)cc2c1nc(-c1ccc(S(C)(=O)=O)cc1)n2C` [Example 91, 1-(7-(4-(1,4-dimethyl-2-(4-(methylsulfonyl)phenyl)-1H-imidazo[4,5-c]pyridin-6-yl)phenyl)-2,7-diazaspiro[3.5]nonan-2-yl)-2-methylpropan-2-ol], for which the pIC50 (commonly the negative decadic logarithm of the IC50, by convention in mol/L) against human TLR9 was 6.77; at human TLR7, 5.26; against human TLR8, 5.17.
As to `COc1ccc(-c2nc3c(C)nc(-c4ccc(N5C[C@H]6CN(CC(C)C)C[C@H]6C5)cc4)cc3n2C)cc1OC` [Example 65, 2-(3,4-dimethoxyphenyl)-6-(4-((3aR,6aS)-5-isobutylhexahydropyrrolo[3,4-c]pyrrol-2(1H)-yl)phenyl)-1,4-dimethyl-1H-imidazo[4,5-c]pyridine], the pIC50 against human TLR9 is 7.23; on human TLR7, 5.27; against human TLR8 it was < 4.30.
Take `CC(C)N1CCC(N2CC=C(c3cc4c(nc(-c5ccc(S(C)(=O)=O)cc5)n4C)c(C(F)(F)F)n3)CC2)CC1` [Example 35, 6-(1-(1-isopropylpiperidin-4-yl)-1,2,3,6-tetrahydropyridin-4-yl)-1-methyl-2-(4-(methylsulfonyl)phenyl)-4-(trifluoromethyl)-1H-imidazo[4,5-c]pyridine]: the pIC50 is 6.80 on human TLR9, 5.48 against human TLR7 and < 4.30 against human TLR8.
On to `Cc1nc(-c2ccc(C3CCN(C)CC3)cc2)cc2c1nc(-c1ccc(S(C)(=O)=O)cc1)n2C` [Example 26, 1,4-dimethyl-6-(4-(1-methylpiperidin-4-yl)phenyl)-2-(4-(methylsulfonyl)phenyl)-1H-imidazo[4,5-c]pyridine], for which the pIC50 was 6.64 at human TLR9, 5.21 at human TLR7 and 4.39 against human TLR8.
Consider `Cc1nc(-c2ccc(C3CCN(C4CCOCC4)CC3)cc2)cc2c1nc(-c1ccc(S(C)(=O)=O)cc1)n2C` [Example 28, 1,4-dimethyl-2-(4-(methylsulfonyl)phenyl)-6-(4-(1-(tetrahydro-2H-pyran-4-yl)piperidin-4-yl)phenyl)-1H-imidazo[4,5-c]pyridine], for which the figures for the pIC50 against human TLR9, against human TLR7 and on human TLR8 were 6.51, 4.96 and < 4.60, respectively.
As for `Cc1nc(-c2ccc(N3CC4(CCN(CC(C)(C)O)CC4)C3)cc2)cc2c1nc(-c1ccc(S(C)(=O)=O)cc1)n2C` [Example 100, 1-(2-(4-(1,4-dimethyl-2-(4-(methylsulfonyl)phenyl)-1H-imidazo[4,5-c]pyridin-6-yl)phenyl)-2,7-diazaspiro[3.5]nonan-7-yl)-2-methylpropan-2-ol], the pIC50 on human TLR9 is 6.19; against human TLR7, 5.48; at human TLR8, 5.66.
Regarding `CC(C)CN1CCC(N2CCC(c3cc4c(nc(-c5ccc(S(C)(=O)=O)cc5)n4C)c(C(F)(F)F)n3)CC2)CC1` [Example 33, 6-(1′-isobutyl-[1,4′-bipiperidin]-4-yl)-1-methyl-2-(4-(methylsulfonyl)phenyl)-4-(trifluoromethyl)-1H-imidazo[4,5-c]pyridine], the pIC50 was 6.23 against human TLR9, 5.85 on human TLR7 and < 4.30 against human TLR8.
On to `COc1ccc(-c2nc3cnc(-c4ccc(N5CCC6(CC5)CN(C(C)C)C6)cc4)cc3n2C2CC2)cc1OC` [Example 83, 1-cyclopropyl-2-(3,4-dimethoxyphenyl)-6-(4-(2-isopropyl-2,7-diazaspiro[3.5]nonan-7-yl)phenyl)-1H-imidazo[4,5-c]pyridine], for which the pIC50 was 6.47 on human TLR9, 5.74 against human TLR7 and 4.92 on human TLR8.
The corresponding values for `Cc1nc(-c2ccc(CN3CCC(N4CCOCC4)CC3)cc2)cc2c1nc(-c1ccc(S(C)(=O)=O)cc1)n2C` [Example 54, 4-(1-(4-(1,4-dimethyl-2-(4-(methylsulfonyl)phenyl)-1H-imidazo[4,5-c]pyridin-6-yl)benzyl)piperidin-4-yl)morpholine] are 6.62, < 4.30 and 5.02.
The corresponding values for `COc1ccc(-c2nc3c(C)nc(-c4ccc(N5CC6(CN(CC(C)C)C6)C5)cc4)cc3n2C)cc1OC` [Example 71, 2-(3,4-dimethoxyphenyl)-6-(4-(6-isobutyl-2,6-diazaspiro[3.3]heptan-2-yl)phenyl)-1,4-dimethyl-1H-imidazo[4,5-c]pyridine] are 6.89, 6.00 and 4.77.
